The term inhibition denotes the relative decrease from the control value, in per cent. In general, IC50 refers to the concentration needed to halve the response being measured.

What all share (assay type): cell-based
The subject of assay [1] is J774A.1 (Mouse BALB/c monocyte macrophage cell line) cells. Description: LPS-induced TNF-α secretion inhibition in J774A.1 cells. As to conditions: J774.A1, 1 μM compound, graded compared to taurodeoxycholic acid (positive control), read-out: TNF-α production inhibition grade. An outline of the steps: (§1)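 Mouse J774A.1 macrophages treated with 1 μM compound; TNF-α secretion measured after LPS stimulation and IL-1β secretion after LPS+ATP stimulation. Suppression graded against taurodeoxycholic acid: A over 100%, B 50–100%, C 20–50%, D under 20%.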

Assay [2] shares this test system. The assay is described as follows: LPS+ATP-induced IL-1β secretion inhibition in J774A.1 cells. To be noted: J774.A1, 1 μM compound, graded compared to taurodeoxycholic acid (positive control), read-out: IL-1β production inhibition grade. An outline of the steps:
as §1

For assay [3], the system named is U937 cells (human monocytic cell line). Description: Pam2CSK4-induced TNF-α secretion inhibition in PMA-differentiated U937 cells. As to conditions: U-937, U937 cells differentiated with PMA, read-out: TNF-α production inhibition grade (IC50). Put shortly: (§2)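 U937 cells were PMA-differentiated into macrophages and treated with compound before inflammatory stimulus. TNF-α secretion was induced with Pam2CSK4 and IL-1β secretion with BzATP. IC50 (μM) values are graded A-D, with separate cut-offs per cytokine.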

Assay [4] has the same test system. Description: BzATP-induced IL-1β secretion inhibition in PMA-differentiated U937 cells. To be noted: U-937, U937 cells differentiated with PMA, read-out: IL-1β production inhibition grade (IC50). Put shortly:
as §2

Turning to `C[C@H](CS(=O)(=O)O)NC(=O)CC[C@@H](C)[C@H]1CC[C@H]2[C@@H]3CC[C@@H]4C[C@H](O)CC[C@]4(C)[C@H]3CC[C@]12C` [NC10085], the inhibition at 1 µM in assay [1] and in assay [2] was under 20% in each case. In addition, the half-inhibitory concentration (IC50) is at least 2000 nM in assay [3] and at least 200 nM in assay [4].

Regarding `CC(C)C[C@@H](CS(=O)(=O)O)NC(=O)CC[C@@H](C)[C@H]1CC[C@H]2[C@@H]3CC[C@@H]4C[C@H](O)CC[C@]4(C)[C@H]3CC[C@]12C` [NC10086], the inhibition at 1 µM in assay [1] and in assay [2] was under 20% throughout. In addition, the figures for the IC50 in assay [3] and in assay [4] were under 500 nM and at least 200 nM, respectively.

For `CC(C)C[C@H](CS(=O)(=O)O)NC(=O)CC[C@@H](C)[C@H]1CC[C@H]2[C@@H]3CC[C@@H]4C[C@H](O)CC[C@]4(C)[C@H]3CC[C@]12C` [NC10087], the inhibition at 1 µM in assay [1] and in assay [2] was over 100% in each case. The IC50 in assay [3] is 500 to 1000 nM; in assay [4] it was under 50 nM.

`C[C@H](CCC(=O)NC1(CS(=O)(=O)O)CC1)[C@H]1CC[C@H]2[C@@H]3CC[C@@H]4C[C@H](O)CC[C@]4(C)[C@H]3CC[C@]12C` [NC10088]: the inhibition at 1 µM in assay [1] is 20 to 50%; in assay [2], under 20%. The IC50 is under 500 nM in assay [3] and at least 200 nM in assay [4].

Regarding `C[C@H](CCC(=O)N1CC[C@H](S(=O)(=O)O)C1)[C@H]1CC[C@H]2[C@@H]3CC[C@@H]4C[C@H](O)CC[C@]4(C)[C@H]3CC[C@]12C` [NC10089], the inhibition at 1 µM in assay [1] was under 20%; in assay [2], 20 to 50%. In addition, the figures for the IC50 in assay [3] and in assay [4] were under 500 nM and at least 200 nM, respectively.

`C[C@H](CCC(=O)N1CC[C@@H](S(=O)(=O)O)C1)[C@H]1CC[C@H]2[C@@H]3CC[C@@H]4C[C@H](O)CC[C@]4(C)[C@H]3CC[C@]12C` [NC10090]: the inhibition at 1 µM in assay [1] and in assay [2] was under 20% each time. In addition, the IC50 was 500 to 1000 nM in assay [3] and at least 200 nM in assay [4].

As to `C[C@H](CCC(=O)N(CCN(C)C)CCS(=O)(=O)O)[C@H]1CC[C@H]2[C@@H]3CC[C@@H]4C[C@H](O)CC[C@]4(C)[C@H]3CC[C@]12C` [NC10091], the inhibition at 1 µM in assay [1] and in assay [2] was over 100% in each case. Also, the IC50 is 500 to 1000 nM in assay [3] and under 50 nM in assay [4].

In the case of `C[C@H](CCC(=O)NCCC(=O)O)[C@H]1CC[C@H]2[C@@H]3[C@H](O)C[C@@H]4C[C@H](O)CC[C@]4(C)[C@H]3C[C@H](O)[C@]12C` [NC20002], the inhibition at 1 µM in assay [1] and in assay [2] was 50 to 100% in each case. Further, the IC50 in assay [3] was at least 2000 nM; in assay [4], 100 to 200 nM.

Regarding `C[C@H](CCC(=O)N(C)CCS(=O)(=O)O)[C@H]1CC[C@H]2[C@@H]3[C@H](O)C[C@@H]4C[C@H](O)CC[C@]4(C)[C@H]3C[C@H](O)[C@]12C` [NC20004], the inhibition at 1 µM in assay [1] is under 20%; in assay [2] it was over 100%. Besides, the IC50 is 500 to 1000 nM in assay [3] and under 50 nM in assay [4].

In the case of `C[C@H](CCC(=O)N(CCS(=O)(=O)O)Cc1ccccc1)[C@H]1CC[C@H]2[C@@H]3[C@H](O)C[C@@H]4C[C@H](O)CC[C@]4(C)[C@H]3C[C@H](O)[C@]12C` [NC20005], the inhibition at 1 µM in assay [1] is under 20%; in assay [2], over 100%. Also, the IC50 was in the range of 500 to 1000 nM in assay [3] and 50 to 100 nM in assay [4].

Consider `C[C@H](CCC(=O)N(CCO)CCS(=O)(=O)O)[C@H]1CC[C@H]2[C@@H]3[C@H](O)C[C@@H]4C[C@H](O)CC[C@]4(C)[C@H]3C[C@H](O)[C@]12C` [NC20006], for which the values for the inhibition at 1 µM in assay [1] and in assay [2] were under 20% and over 100%, respectively. The IC50 in assay [3] was 1000 to 2000 nM; in assay [4], under 50 nM.

Take `CC(C)N(CCS(=O)(=O)O)C(=O)CC[C@@H](C)[C@H]1CC[C@H]2[C@@H]3[C@H](O)C[C@@H]4C[C@H](O)CC[C@]4(C)[C@H]3C[C@H](O)[C@]12C` [NC20007]: the inhibition at 1 µM in assay [1] is under 20%; in assay [2] it was over 100%. Further, the half-maximal inhibitory concentration (IC50) in assay [3] is 1000 to 2000 nM; in assay [4], under 50 nM.

Take `C[C@H](CCC(=O)N(CCS(=O)(=O)O)C1CCOCC1)[C@H]1CC[C@H]2[C@@H]3[C@H](O)C[C@@H]4C[C@H](O)CC[C@]4(C)[C@H]3C[C@H](O)[C@]12C` [NC20008]: the results for the inhibition at 1 µM in assay [1] and in assay [2] were under 20% and over 100%, respectively. Further, the IC50 in assay [3] was 500 to 1000 nM; in assay [4] it was 50 to 100 nM.

Turning to `C[C@H](CCC(=O)N1CCC[C@H](S(=O)(=O)O)C1)[C@H]1CC[C@H]2[C@@H]3[C@H](O)C[C@@H]4C[C@H](O)CC[C@]4(C)[C@H]3C[C@H](O)[C@]12C` [NC20009], the inhibition at 1 µM in assay [1] and in assay [2] was under 20% in each case. The IC50 in assay [3] was at least 2000 nM; in assay [4], under 50 nM.

Turning to `C[C@H](CCC(=O)N1CCC[C@@H](S(=O)(=O)O)C1)[C@H]1CC[C@H]2[C@@H]3[C@H](O)C[C@@H]4C[C@H](O)CC[C@]4(C)[C@H]3C[C@H](O)[C@]12C` [NC20010], the inhibition at 1 µM was under 20% in assay [1] and 50 to 100% in assay [2]. The concentration for half-maximal inhibition (IC50) in assay [3] is 1000 to 2000 nM; in assay [4], under 50 nM.

For `C[C@H](CCC(=O)N1CCC(S(=O)(=O)O)CC1)[C@H]1CC[C@H]2[C@@H]3[C@H](O)C[C@@H]4C[C@H](O)CC[C@]4(C)[C@H]3C[C@H](O)[C@]12C` [NC20011], the values for the inhibition at 1 µM in assay [1] and in assay [2] were under 20% and 50 to 100%, respectively. Besides, the IC50 in assay [3] was at least 2000 nM; in assay [4], 50 to 100 nM.

On to `C[C@H](CCC(=O)N1CC(S(=O)(=O)O)C1)[C@H]1CC[C@H]2[C@@H]3[C@H](O)C[C@@H]4C[C@H](O)CC[C@]4(C)[C@H]3C[C@H](O)[C@]12C` [NC20012], for which the inhibition at 1 µM in assay [1] was under 20%; in assay [2], over 100%. Moreover, the 50% inhibitory concentration (IC50) in assay [3] is 500 to 1000 nM; in assay [4], under 50 nM.

Regarding `C[C@H](CCC(=O)NC(C)(C)CS(=O)(=O)O)[C@H]1CC[C@H]2[C@@H]3[C@H](O)C[C@@H]4C[C@H](O)CC[C@]4(C)[C@H]3C[C@H](O)[C@]12C` [NC20013], the inhibition at 1 µM was under 20% in assay [1] and over 100% in assay [2]. The results for the IC50 in assay [3] and in assay [4] were 1000 to 2000 nM and under 50 nM, respectively.

Regarding `C[C@H](CCC(=O)N[C@@H](Cc1ccccc1)CS(=O)(=O)O)[C@H]1CC[C@H]2[C@@H]3[C@H](O)C[C@@H]4C[C@H](O)CC[C@]4(C)[C@H]3C[C@H](O)[C@]12C` [NC20014], the inhibition at 1 µM in assay [1] is under 20%; in assay [2], over 100%. In addition, the figures for the IC50 in assay [3] and in assay [4] were 500 to 1000 nM and under 50 nM, respectively.

In the case of `C[C@H](CCC(=O)N[C@H](Cc1ccccc1)CS(=O)(=O)O)[C@H]1CC[C@H]2[C@@H]3[C@H](O)C[C@@H]4C[C@H](O)CC[C@]4(C)[C@H]3C[C@H](O)[C@]12C` [NC20015], the figures for the inhibition at 1 µM in assay [1] and in assay [2] were under 20% and over 100%, respectively. The IC50 is under 500 nM in assay [3] and under 50 nM in assay [4].

Regarding `CC(C)[C@@H](CS(=O)(=O)O)NC(=O)CC[C@@H](C)[C@H]1CC[C@H]2[C@@H]3[C@H](O)C[C@@H]4C[C@H](O)CC[C@]4(C)[C@H]3C[C@H](O)[C@]12C` [NC20016], the figures for the inhibition at 1 µM in assay [1] and in assay [2] were under 20% and over 100%, respectively. Also, the IC50 in assay [3] was 1000 to 2000 nM; in assay [4], under 50 nM.

For `CC(C)[C@H](CS(=O)(=O)O)NC(=O)CC[C@@H](C)[C@H]1CC[C@H]2[C@@H]3[C@H](O)C[C@@H]4C[C@H](O)CC[C@]4(C)[C@H]3C[C@H](O)[C@]12C` [NC20017], the inhibition at 1 µM in assay [1] was under 20%; in assay [2] it was 50 to 100%. In addition, the 50% inhibitory concentration (IC50) in assay [3] was under 500 nM; in assay [4], at least 200 nM.

For the molecule `C[C@H](CCC(=O)N[C@H](CS(=O)(=O)O)c1ccccc1)[C@H]1CC[C@H]2[C@@H]3[C@H](O)C[C@@H]4C[C@H](O)CC[C@]4(C)[C@H]3C[C@H](O)[C@]12C` [NC20018], the inhibition at 1 µM in assay [1] and in assay [2] was under 20% in each case. For the same molecule, the IC50 in assay [3] is 1000 to 2000 nM; in assay [4], at least 200 nM.

As for `C[C@H](CCC(=O)N[C@@H](CS(=O)(=O)O)c1ccccc1)[C@H]1CC[C@H]2[C@@H]3[C@H](O)C[C@@H]4C[C@H](O)CC[C@]4(C)[C@H]3C[C@H](O)[C@]12C` [NC20019], the inhibition at 1 µM in assay [1] and in assay [2] was under 20% in each case. Moreover, the IC50 was 1000 to 2000 nM in assay [3] and 50 to 100 nM in assay [4].

With `C[C@H](CCC(=O)N1CCC[C@@H]1CS(=O)(=O)O)[C@H]1CC[C@H]2[C@@H]3[C@H](O)C[C@@H]4C[C@H](O)CC[C@]4(C)[C@H]3C[C@H](O)[C@]12C` [NC20020], the figures for the inhibition at 1 µM in assay [1] and in assay [2] were 50 to 100% and 20 to 50%, respectively. Moreover, the IC50 is at least 2000 nM in assay [3] and under 50 nM in assay [4].

(Values after patent US20240391948A1, “NOVEL COMPOUND THAT INHIBITS TNF-ALPHA GENERATION AND INFLAMMASOME ACTIVITY AND PREPARATION METHOD THEREFOR” (SHAPERON INC., priority 2021, published 2024).)
